Among the test systems are HOP-62; NCI-H23; 786-0; ACHN; SK-MEL-5; SR; SK-MEL-2; KM12; RXF 393; SW-620; HL-60; K562; SF-268; OVCAR-4; CAKI-1.
Holding throughout (test): inhibition of tumour cell growth, NCI panel, 48 h

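Test compounds were applied to cells in 96-well plates for 48 hours at 5 doses. GI50 is the concentration that inhibits growth by half.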 Activity calls are given as the source filed them. No stated cut-off is given here; in the data, active = GI50 up to about 1.1 µM and inactive = higher.

The source of these data is ChEMBL document CHEMBL1201862, “PubChem BioAssay data set” (2004).

`Cc1cc(C)n(-c2ccnc3cc(Cl)ccc23)n1`: the GI50 in the assay with HOP-62, in the assay with NCI-H23, in the assay with 786-0, in the assay on ACHN, with SK-MEL-5 and with SR was > 100 µM (inactive) in each case. Moreover, the GI50 with SK-MEL-2, in the assay on KM12, in the assay with RXF 393, in the assay on SW-620, in the assay on HL-60 and in the assay with K562 was > 100 µM (inactive) each time. Moreover, the GI50 in the assay with SF-268 and with OVCAR-4 was > 100 µM (inactive) each time.

`Cc1csc(=S)n1OC(=O)NC1CCCCC1`: the GI50 is > 100 µM (inactive) in the assay on HOP-62; > 21.9 µM (inactive) in the assay with NCI-H23; 19 µM (inactive) in the assay on 786-0; > 100 µM (inactive) with ACHN; > 51.4 µM (inactive) in the assay with SK-MEL-5; 12.1 µM (inactive) with SR. The GI50 in the assay with SK-MEL-2 is 68.4 µM (inactive); in the assay with KM12, > 80.9 µM (inactive); with RXF 393, > 100 µM (inactive); with SW-620 it was > 56.8 µM (inactive); in the assay on HL-60 it was 17.9 µM (inactive); with K562 it was 31 µM (inactive). Besides, the GI50 in the assay on SF-268 is > 87.1 µM (inactive); in the assay with CAKI-1, > 100 µM (inactive).

Consider `CCCCCCCCCC(=O)CC(=O)c1ccc(O)cc1O`, for which the GI50 with HOP-62 was 19.8 µM (inactive); in the assay with NCI-H23, 25.6 µM (inactive); in the assay with 786-0, 33.5 µM (inactive); in the assay with ACHN it was 28.6 µM (inactive); in the assay on SK-MEL-5, 17.6 µM (inactive); in the assay on SR it was 15.8 µM (inactive). Also, the GI50 in the assay with SK-MEL-2 is 18.6 µM (inactive); in the assay on KM12 it was 21.4 µM (inactive); in the assay with RXF 393, 28.4 µM (inactive); with SW-620, 36.5 µM (inactive); in the assay with HL-60, 19 µM (inactive); in the assay on K562, 29.1 µM (inactive). The GI50 with SF-268 was 40.8 µM (inactive); in the assay with CAKI-1, 23.7 µM (inactive); in the assay on OVCAR-4, 42.1 µM (inactive).

`Cc1ccc(NC(=S)SCCC(=O)O)cc1`: the GI50 in the assay with HOP-62, in the assay with NCI-H23, in the assay on 786-0, in the assay with ACHN, in the assay with SR and in the assay on SK-MEL-2 was > 100 µM (inactive) throughout. In addition, the GI50 was > 100 µM (inactive) in the assay on KM12; > 100 µM (inactive) in the assay on RXF 393; > 100 µM (inactive) in the assay with SW-620; > 100 µM (inactive) with HL-60; > 100 µM (inactive) with K562; 71.6 µM (inactive) in the assay with SF-268. Moreover, the values for the GI50 in the assay on CAKI-1 and in the assay with OVCAR-4 were 81.8 µM (inactive) and > 100 µM (inactive), respectively.

In the case of `CCOc1ccc(NC2=NC(=O)C(CC(=O)Nc3ccccc3[N+](=O)[O-])S2)cc1` (stereo not given), the GI50 in the assay with NCI-H23, with 786-0, in the assay on ACHN, in the assay on SK-MEL-5, in the assay with SR and in the assay with SK-MEL-2 was > 100 µM (inactive) throughout. The GI50 in the assay with RXF 393, with SW-620, with HL-60, in the assay with K562, with SF-268 and in the assay with CAKI-1 was > 100 µM (inactive) throughout. The GI50 in the assay on OVCAR-4 is > 100 µM (inactive).

For the compound `CCC12C=CCN3CCC4(C(=C(C(=O)OC)C1)Nc1ccccc14)[C@H]32` (stereo not given in full), the GI50 is 28.4 µM (inactive) with NCI-H23; 23.4 µM (inactive) with 786-0; 64 µM (inactive) with ACHN; 27.2 µM (inactive) with SK-MEL-5; 0.0364 µM (active) in the assay on SR; 19.1 µM (inactive) in the assay with SK-MEL-2. For the same compound, the GI50 was 25.8 µM (inactive) in the assay on KM12; 24.9 µM (inactive) in the assay with RXF 393; 26 µM (inactive) with SW-620; 16 µM (inactive) with HL-60; 18.8 µM (inactive) in the assay with K562; 19.5 µM (inactive) with SF-268. The GI50 with CAKI-1 was > 100 µM (inactive); with OVCAR-4, 29.4 µM (inactive).

Regarding `CCC12C=CCN3CCC4(c5cc(C6(C(=O)OC)CCCCCc7c6[nH]c6ccccc76)c(OC)cc5N(C)C4C(O)(C(=O)OC)C1OC(C)=O)C32` (stereo not given), the GI50 in the assay on HOP-62 is 3.72 µM (inactive); with 786-0, 2.29 µM (inactive); in the assay with ACHN, 1.61 µM (inactive); in the assay with SR, 2.54 µM (inactive); with SK-MEL-2 it was 1.74 µM (inactive); with KM12, 2.55 µM (inactive). Moreover, the GI50 was 1.64 µM (inactive) in the assay on RXF 393; 3.3 µM (inactive) with SW-620; 2.29 µM (inactive) with HL-60; 2.82 µM (inactive) in the assay with K562; 2.95 µM (inactive) with SF-268; 2.7 µM (inactive) in the assay with CAKI-1. The GI50 in the assay with OVCAR-4 is 2.95 µM (inactive).

For the compound `Nc1nc(N)c(-c2ccccc2)c(CCC(=O)Nc2ccc(Cl)cc2)n1`, the GI50 with HOP-62, in the assay with NCI-H23, in the assay on 786-0, with ACHN, with SK-MEL-5 and with SR was > 100 µM (inactive) in each case. In addition, the GI50 is > 100 µM (inactive) in the assay with SK-MEL-2; > 100 µM (inactive) in the assay on KM12; > 100 µM (inactive) in the assay on SW-620; > 100 µM (inactive) in the assay with HL-60; 76.2 µM (inactive) in the assay with K562; > 100 µM (inactive) in the assay with SF-268. Also, the GI50 in the assay on CAKI-1 and in the assay on OVCAR-4 was > 100 µM (inactive) in each case.

As to `Cc1cccc(NC(=O)C(=O)C(C(=O)c2ccc3ccccc3c2)C2OC(=O)c3ccccc32)c1C` (stereo not given), the GI50 in the assay with HOP-62 is 10.7 µM (inactive); with NCI-H23 it was 8.99 µM (inactive); in the assay with 786-0, 6.15 µM (inactive); in the assay on ACHN, 28.1 µM (inactive); in the assay with SK-MEL-5 it was 12.4 µM (inactive); in the assay with SK-MEL-2, 13.2 µM (inactive). Moreover, the GI50 in the assay with KM12 was 20.8 µM (inactive); in the assay with RXF 393, 2.39 µM (inactive); in the assay with SW-620, 7.98 µM (inactive); in the assay with HL-60 it was 11.4 µM (inactive); in the assay on K562, 15.7 µM (inactive); in the assay with SF-268, 6.03 µM (inactive). Moreover, the GI50 with CAKI-1 is 11.9 µM (inactive); in the assay with OVCAR-4 it was 10.9 µM (inactive).

Regarding `O=c1cccccc1NCCNc1cccccc1=O`, the GI50 in the assay on HOP-62, in the assay on NCI-H23, with 786-0, in the assay with ACHN, in the assay on SR and in the assay with SK-MEL-2 was > 100 µM (inactive) in each case. The GI50 in the assay with KM12 is > 100 µM (inactive); with RXF 393, 68.2 µM (inactive); in the assay on SW-620 it was > 100 µM (inactive); with HL-60, > 100 µM (inactive); in the assay on K562, > 100 µM (inactive); in the assay on SF-268, > 100 µM (inactive). The GI50 in the assay on CAKI-1 and in the assay with OVCAR-4 was > 100 µM (inactive) in each case.

For the compound `CCOC(=O)NC(=O)c1cn(C2OC(COC(=O)CCCCCCCCC(=O)OCC3OC(n4cc(C(=O)NC(=O)OCC)c(=O)[nH]c4=O)C4OC(C)(C)OC34)C3OC(C)(C)OC32)c(=O)[nH]c1=O` (stereo not given), the GI50 in the assay with HOP-62 was > 100 µM (inactive); in the assay on NCI-H23, > 100 µM (inactive); in the assay with 786-0 it was > 100 µM (inactive); with ACHN, > 100 µM (inactive); with SK-MEL-5, 54.1 µM (inactive); in the assay on SR, 78.5 µM (inactive). Further, the GI50 in the assay with SK-MEL-2 was 52.1 µM (inactive); with KM12, 73.8 µM (inactive); in the assay on RXF 393, > 100 µM (inactive); in the assay with SW-620 it was 35.8 µM (inactive); in the assay on HL-60 it was 63.5 µM (inactive); with K562, 40.8 µM (inactive). The GI50 in the assay on SF-268 was 70.5 µM (inactive); in the assay with CAKI-1 it was > 100 µM (inactive); with OVCAR-4, 57 µM (inactive).

In the case of `OCc1ccc(C2CC(c3ccco3)=NN2c2ccccc2)o1` (stereo not given), the GI50 with HOP-62, in the assay on NCI-H23, with 786-0, in the assay on ACHN, in the assay with SK-MEL-5 and in the assay on SR was > 100 µM (inactive) each time. For the same compound, the GI50 in the assay with SK-MEL-2 was > 100 µM (inactive); in the assay with KM12, > 100 µM (inactive); in the assay on RXF 393, > 100 µM (inactive); in the assay on SW-620 it was > 100 µM (inactive); in the assay on HL-60, > 100 µM (inactive); in the assay with K562 it was 86.3 µM (inactive). Further, the GI50 in the assay with SF-268 and in the assay with OVCAR-4 was > 100 µM (inactive) throughout.

Consider `COC(=O)C1=C(C)N(NC(=O)c2cccc(Cl)c2)C(C)(O)C12CCOC2=O` (stereo not given), for which the GI50 in the assay with HOP-62, in the assay on 786-0, in the assay on ACHN, with SK-MEL-5, with SR and with SK-MEL-2 was > 100 µM (inactive) in each case. Besides, the GI50 in the assay on KM12, in the assay on SW-620, with K562, with SF-268, in the assay on CAKI-1 and in the assay with OVCAR-4 was > 100 µM (inactive) throughout.

`COc1cc(C(C#N)NNC(=O)c2ccccc2O)ccc1O` (stereo not given): the GI50 in the assay on HOP-62 is 4.78 µM (inactive); in the assay on NCI-H23, 2.07 µM (inactive); in the assay with 786-0, 2.7 µM (inactive); with ACHN it was 0.873 µM (active); in the assay on SK-MEL-5, 9.95 µM (inactive); with SR it was > 100 µM (inactive). For the same compound, the GI50 in the assay with SK-MEL-2 is 2.48 µM (inactive); in the assay with KM12, 3.85 µM (inactive); in the assay on RXF 393, 0.349 µM (active); in the assay on SW-620, 8.32 µM (inactive); in the assay with HL-60 it was 2.45 µM (inactive); in the assay with K562 it was 0.622 µM (active). Moreover, the GI50 in the assay with SF-268 is 0.368 µM (active); in the assay on CAKI-1, 5.46 µM (inactive); in the assay with OVCAR-4, 5.33 µM (inactive).
